What was measured:
[1] = test system: SH-SY5Y neuroblastoma cells; experiment: sAPPα formation/release in SH-SY5Y cells (6E10 western blot, densitometry); type: cell-based; conditions: Bryostatin-1 alone
Description: Cells were treated with RA, Bryostatin-1 (10^−9M)+RA, Bryostatin-1 (10^−10M) RA+Bryostatin-1 (10^−10M) for 3 h. Representative western blots show sAPPα recovered from culture medium.

ADAM10 = ADAM10 (alpha-secretase) expression in SH-SY5Y cells; type: cell-based; conditions: each agent alone or in combination
Excerpt: Therefore, Bryostatin-1 may increase a-secretase processing through 2 independent mechanisms: (i) activation of PKCs which stimulate secretase; and (ii) increased expression of a-secretase.

prostate cancer cells = conditions: by modulating PKC delta translocation and preventing TNF-alpha release; cited from earlier work
[2] = test system: Mouse strain B6C3-Tg carrying mutant Swedish Amyloid precursor protein (sweAPP) and PSI (presenilin-l) genes; experiment: Water maze studies in Alzheimer's disease mouse model; type: in vivo
Excerpt: Mouse strain B6C3-Tg carrying mutant Swedish Amyloid precursor protein (sweAPP) and PSI (presenilin-l) genes associated with early onset Alzheimer's disease were subjected to water maze tests at 5-6 months of age.

CCC/C=C/C=C/C(=O)O[C@H]1/C(=C/C(=O)OC)C[C@H]2C[C@H]([C@@H](C)O)OC(=O)C[C@H](O)C[C@@H]3C[C@H](OC(C)=O)C(C)(C)[C@](O)(C[C@@H]4C/C(=C/C(=O)OC)C[C@H](/C=C/C(C)(C)[C@]1(O)O2)O4)O3 [Bryostatin-1]
sAPPα formation ([1]; 10^−9M, SH-SY5Y cells): increased
sAPPα recovered from culture medium ([1]; 10^−10M, 3 h, SH-SY5Y cells, vs control): significantly increased
activity of alpha-secretase ([1]; SH-SY5Y neuroblastoma cells): potently stimulate
expression of ADAM10 (the major form of alpha-secretase) (ADAM10): significantly increase
phorbol ester-induced apoptosis (prostate cancer cells): inhibits
protection against Alzheimer's disease mediated memory loss (water maze) ([2]; 5 micrograms/mouse on alternative days orally in an oil formulation, mice 5-6 months of age, vs control animals): significant protection
memory and cognition in AD model ([2]; mouse, in vivo): enhance memory and cognition
